Reference: patent US8163756B2 (priority 2004, dated 2012)

Columns and labels:
Type in all cases: biochemical
Abl kinase [1] = target: T1, Abl kinase (Homo sapiens, UniProt P00519); experiment: Abl kinase assay A1 (pyruvate kinase/lactate dehydrogenase coupled, spectrophotometric); settings: Method A1; read-out: Abl Data (IC50)
T1 sequence (P00519 229-512): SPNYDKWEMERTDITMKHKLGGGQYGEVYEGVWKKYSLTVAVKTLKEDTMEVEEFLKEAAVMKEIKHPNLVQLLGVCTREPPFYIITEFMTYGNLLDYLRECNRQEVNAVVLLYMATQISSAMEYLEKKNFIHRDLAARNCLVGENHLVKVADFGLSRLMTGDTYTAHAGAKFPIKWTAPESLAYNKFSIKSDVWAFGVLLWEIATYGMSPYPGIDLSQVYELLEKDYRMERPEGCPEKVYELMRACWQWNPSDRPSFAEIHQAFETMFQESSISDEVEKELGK
Procedure: (§1) IC50 values were calculated from a series of percent inhibition values determined at a range of inhibitor concentrations using software routines as implemented in the GraphPad Prism software package.

KDR kinase = KDR kinase (Homo sapiens, UniProt P35968, DEL940-989/E990V); experiment: KDR kinase assay K2 (as K1, 2.1 nM enzyme, 2 h pre-incubation, 1.0 mM ATP); settings: Method K2; read-out: KDR Data (IC50)
Procedure: as §1

B-Raf(V599E) kinase = B-Raf(V599E) kinase (Homo sapiens, UniProt P15056, V600E); experiment: B-Raf(V599E) kinase assay B1 (construct 1, MEK1 substrate, coupled spectrophotometric)
Procedure: The test compounds were incubated with the reaction mixtureat 30° C. for 2 h. […] The reaction rate was calculated using the […] time frame. […] IC50 values were calculated from a series of percent inhibition values determined at a range of inhibitor concentrations using software routines as implemented in the GraphPad Prism software package.

[2] = target: phosphorylated p-38-alpha kinase (Homo sapiens, UniProt Q16539); experiment: P-38 alpha kinase assay P1 (coupled spectrophotometric, 2 h pre-incubation); settings: method P1 (2 h pre-incubation); read-out: P-38 Data
Abl kinase [3] = target: T1, Abl kinase; experiment: Abl kinase assay A2 (as A1, 1.1 nM enzyme, 2 h pre-incubation, 0.5 mM ATP); settings: Method A2; read-out: Abl Data (IC50)
Procedure: as §1

B-Raf(V599E) kinase, sequence (P15056 with tags, fused parts or gaps V600E): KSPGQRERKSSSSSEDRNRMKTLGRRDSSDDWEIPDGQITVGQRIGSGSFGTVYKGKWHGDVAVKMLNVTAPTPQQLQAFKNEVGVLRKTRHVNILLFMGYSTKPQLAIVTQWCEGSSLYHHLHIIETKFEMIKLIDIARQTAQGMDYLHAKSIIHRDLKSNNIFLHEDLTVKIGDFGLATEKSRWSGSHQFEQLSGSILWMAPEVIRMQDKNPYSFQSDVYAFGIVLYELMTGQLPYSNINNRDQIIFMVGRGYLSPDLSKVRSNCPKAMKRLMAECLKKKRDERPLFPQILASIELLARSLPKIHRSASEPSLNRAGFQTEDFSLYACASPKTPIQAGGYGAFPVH
KDR kinase, sequence (P35968 with tags, fused parts or gaps DEL940-989/E990V): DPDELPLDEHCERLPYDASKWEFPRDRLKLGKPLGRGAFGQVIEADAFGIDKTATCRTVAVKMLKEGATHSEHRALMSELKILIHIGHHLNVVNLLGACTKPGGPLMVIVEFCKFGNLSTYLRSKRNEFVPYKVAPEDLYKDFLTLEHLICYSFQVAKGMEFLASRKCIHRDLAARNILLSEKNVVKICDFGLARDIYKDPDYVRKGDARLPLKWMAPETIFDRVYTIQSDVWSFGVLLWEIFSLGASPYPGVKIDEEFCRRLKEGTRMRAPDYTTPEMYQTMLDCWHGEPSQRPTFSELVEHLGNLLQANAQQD
phosphorylated p-38-alpha kinase, sequence (Q16539 1-360 isoform Q16539-2): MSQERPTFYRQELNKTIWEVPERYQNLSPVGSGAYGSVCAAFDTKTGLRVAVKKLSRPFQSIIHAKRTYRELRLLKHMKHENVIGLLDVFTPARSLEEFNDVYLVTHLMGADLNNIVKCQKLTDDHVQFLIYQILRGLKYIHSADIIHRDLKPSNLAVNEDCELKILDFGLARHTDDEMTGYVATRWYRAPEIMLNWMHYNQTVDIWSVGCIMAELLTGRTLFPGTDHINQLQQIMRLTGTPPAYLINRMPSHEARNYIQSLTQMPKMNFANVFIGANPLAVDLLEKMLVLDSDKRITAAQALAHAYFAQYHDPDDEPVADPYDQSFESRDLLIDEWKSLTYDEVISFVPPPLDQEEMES

Compound | IC50 (Abl kinase [1]) | IC50 (KDR kinase) | IC50 (B-Raf(V599E) kinase) | IC50 [2] | IC50 (Abl kinase [3])
CC(C)(C)c1cc(NC(=O)Nc2cccc(F)c2F)n(-c2cccc(C#N)c2)n1 [Example 4, 1-[3-t-butyl-1-(3-cyan-phenyl)-1H-pyrazol-5-yl]-3-(2,3-difluorophenyl)urea] | 2900 nM | 310 nM |  |  | 
CC(C)(C)c1cc(NC(=O)Nc2ccc(Cl)cc2)n(-c2cccc(C#N)c2)n1 [Example 7, 1-(3-t-butyl-1-(3-cyanophenyl)-1H-pyrazol-5-yl)-3-(4-chlorophenyl)urea] | 5200 nM | 870 nM | 8.2 nM |  | 
CC(C)(C)c1cc(NC(=O)Nc2cc(F)c(F)c(F)c2)n(-c2cccc(C#N)c2)n1 [Example 12, 1-(3-t-butyl-1-(3-cyanophenyl)-1H-pyrazol-5-yl)-3-(3,4,5-trifluorophenyl)urea] | 390 nM | 280 nM |  |  | 
COc1cccc(-n2nc(C(C)(C)C)cc2NC(=O)Nc2ccc(C#N)cc2)c1 [Example 16, 1-(3-t-butyl-1-(3-methoxyphenyl)-1H-pyrazol-5-yl)-3-(4-cyanophenyl)urea] | 5900 nM | 3400 nM |  | 1300 nM | 
COc1ccc(-n2nc(C(C)(C)C)cc2NC(=O)Nc2cccc(Cl)c2Cl)cc1 [Example 18, 1-[3-t-butyl-1-(4-methoxyphenyl)-1H-pyrazol-5-yl]-3-(2,3-dichlorophenyl)urea] | 830 nM | 240 nM | 458 nM |  | 
CCOC(=O)Cc1cccc(-n2nc(C(C)(C)C)cc2NC(=O)Nc2cccc(Cl)c2Cl)c1 [Example 23, ethyl 2-(3-(3-t-butyl-5-(3-(2,3-dichlorophenyl)ureido)-1H-pyrazol-1-yl)phenyl)acetate] | 3800 nM | 1000 nM | 4.8 nM | 21 nM | 
Cc1ccc(NC(=O)Nc2cc(C(C)(C)C)nn2-c2cccc(CC(=O)NCC(O)CO)c2)cc1Nc1ncccn1 (centres unmarked) [Example 38, 1-(3-t-butyl-1-(3-(2-(2,3-dihydroxypropylamino)-2-oxoethyl)phenyl)-1H-pyrazol-5-yl)-3-(4-methyl-3-(pyrimidin-2-ylamino)phenyl)urea] |  |  |  |  | 1400 nM
CC(C)(C)c1cc(NC(=O)Nc2cccc(Cl)c2Cl)n(-c2ccc3ncccc3c2)n1 [Example 52, 1-[3-t-butyl-1-(quinolin-6-yl)-1H-pyrazol-5-yl]-3-(2,3-dichlorophenyl)urea] | 140 nM | 63 nM | 1.8 nM | 23 nM | 
CC(C)(C)c1cc(NC(=O)Nc2cc(F)c(F)cc2F)n(-c2ccc3ncccc3c2)n1 [Example 53, 1-(3-t-butyl-1-(quinolin-6-yl)-1H-pyrazol-5-yl)-3-(2,4,5-trifluorophenyl)urea] | 360 nM | 490 nM | 4.5 nM |  | 
CC(C)(C)c1cc(NC(=O)Nc2cc(F)cc(F)c2F)n(-c2ccc3ncccc3c2)n1 [Example 54, 1-(3-t-butyl-1-(quinolin-6-yl)-1H-pyrazol-5-yl)-3-(2,3,5-trifluorophenyl)urea] | 120 nM | 240 nM | 4.8 nM |  | 
CC(C)(C)c1cc(NC(=O)Nc2ccc(Cl)cc2)n(-c2cnc3ccccc3c2)n1 [Example 56, 1-(3-t-butyl-1-(quinolin-3-yl)-1H-pyrazol-5-yl)-3-(4-chlorophenyl)urea] | 4800 nM | 3100 nM |  |  | 
CC(C)(C)c1cc(NC(=O)Nc2cccc(Cl)c2Cl)n(-c2ccc3c(c2)CCN3S(C)(=O)=O)n1 [Example 108, 1-(3-t-butyl-1-(1-(methylsulfonyl)indolin-5-yl)-1H-pyrazol-5-yl)-3-(2,3-dichlorophenyl)urea] | 250 nM | 13 nM | 1.5 nM | 9 nM | 
CC(C)(C)c1cc(NC(=O)Nc2cc(F)c(F)cc2F)n(-c2ccc3c(c2)CCN3S(C)(=O)=O)n1 [Example 110, 1-(3-t-butyl-1-(1-(methylsulfonyl)indolin-5-yl)-1H-pyrazol-5-yl)-3-(2,4,5-tri-fluorophenyl)urea] | 360 nM | 140 nM | 3.4 nM |  | 
Cn1ccc2cc(-n3nc(C(C)(C)C)cc3NC(=O)Nc3cccc(Cl)c3Cl)ccc21 [Example 117, 1-(3-t-butyl-1-(1-methyl-1H-indol-5-yl)-1H-pyrazol-5-yl)-3-(2,3-dichlorophenyl)urea] | 230 nM | 58 nM | 3.2 nM | 59 nM | 
